# In the OPERA property sets (Mansouri et al. 2018):
# Details: not given
SMILES,boiling point,melting point,ready biodegradability,log10 vapour pressure (mmHg),log10 Koc (L/kg),log10 Henry constant (atm·m³/mol),log10 Koa
Cc1cc(O)c(C)c(C)c1C,266 °C,85.3 °C,–,–,–,–,–
O=[N+]([O-])c1cccc2cccnc12,–,90 °C,–,–,–,–,–
CC(=O)C1=CCCCC1,202 °C,73 °C,–,–,–,–,–
Oc1ccc(I)cc1,–,93.5 °C,not readily biodegradable,–,–,–,–
Cc1ccc[nH]1,147 °C,-35.6 °C,–,–,–,–,–
CCOCc1ccccc1,186 °C,–,–,-0.0339,–,–,–
C#CC1(O)CCCCC1,174 °C,31.5 °C,–,–,–,–,–
OC(CCN1CCCCC1)(c1ccccc1)c1ccccc1,–,120 °C,–,–,–,–,–
CC(=O)Nc1ccc(OC(=O)c2ccccc2OC(C)=O)cc1,–,175 °C,–,–,–,–,–
NCCO.O=C(Nc1ccc([N+](=O)[O-])cc1Cl)c1cc(Cl)ccc1O,–,216 °C,–,–,–,–,–
Sc1ccc(Cl)cc1,206 °C,61 °C,–,–,–,–,–
CCCCCCCC/C=C\CCCCCCCCCCCCC,378 °C,–,–,-4.45,–,–,–
COc1ccccc1C=C(C(=O)O)c1ccccc1,–,158 °C,–,–,–,–,–
Cc1cc(O)c2c(c1)C(=O)c1cccc(O)c1C2=O,–,196 °C,–,–,–,–,–
CC1(C)CCCCC1=O,172 °C,-20.5 °C,–,–,–,–,–
CCOC(=O)C(Br)Br,194 °C,–,–,–,–,–,–
O=C1CCc2ccccc2C1,237 °C,18 °C,–,–,–,–,–
NNc1ccccn1,–,46.6 °C,–,–,–,–,–
CC(=O)c1ccc[nH]1,220 °C,90 °C,–,–,–,–,–
CCC(Cc1c(I)cc(I)c(O)c1I)C(=O)O (stereo not given),–,147 °C,–,–,–,–,–
CC1CCNCC1,130 °C,–,–,–,–,–,–

SMILES,boiling point,melting point,ready biodegradability,log10 vapour pressure (mmHg),log10 Koc (L/kg),log10 Henry constant (atm·m³/mol),log10 Koa
Nc1nc(=O)[nH]cc1F,–,296 °C,–,–,–,–,–
CCCCC(C)Cl (stereo not given),122 °C,–,–,1.13,–,–,–
Nc1ccc(N=Nc2ccccc2)c(N)n1,–,139 °C,–,–,2.32,–,–
C=C(C)C(=O)OCC(F)(F)C(F)F,124 °C,–,–,–,–,–,–
NCCCCCCCCN,225 °C,52 °C,readily biodegradable,–,–,–,–
CC1=CC(=O)CC1,158 °C,–,–,–,–,–,–
NCCN1CCOCC1,205 °C,25.6 °C,–,–,–,–,–
OC(C(F)(F)F)C(F)(F)F,59 °C,-4 °C,not readily biodegradable,2.2,–,-4.37,–
O=C1c2c(O)cccc2Cc2cccc(O)c21,–,179 °C,–,–,–,–,–
CCC1CCNCC1,154 °C,–,–,–,–,–,–
Brc1ccc2ccccc2c1,282 °C,59 °C,–,–,–,–,–
O=C(O)c1cc(-c2ccccc2)nc2ccccc12,–,214 °C,–,–,–,–,–
O=C1OCCN1/N=C/c1ccc([N+](=O)[O-])o1,–,255 °C,–,–,–,–,–
CC(=O)OC(C)C#N (stereo not given),172 °C,-75 °C,–,–,–,–,–
CCCN(CCC)S(=O)(=O)c1ccc(C(=O)O)cc1,–,195 °C,–,–,–,–,–
CC(C)c1ccc(C(=O)O)cc1,–,118 °C,readily biodegradable,–,–,–,–
C#CCCCCCCCCCC,215 °C,-19 °C,–,–,–,–,–
Cc1cccc2cccc(C)c12,270 °C,65 °C,–,-2.32,–,–,–
FC(F)(F)C(F)(F)C(F)(F)C(F)(F)C(F)(F)C(F)(F)I,118 °C,-46 °C,–,–,–,–,–
Clc1ccc(-c2cc(Cl)ccc2Cl)c(Cl)c1,–,–,–,-5.07,–,-3.68,8.39
CC(=O)C=Cc1ccccc1,262 °C,41.8 °C,not readily biodegradable,-1.91,–,–,–

SMILES,boiling point,melting point,ready biodegradability,log10 vapour pressure (mmHg),log10 Koc (L/kg),log10 Henry constant (atm·m³/mol),log10 Koa
O=C(NC(=O)c1c(F)cccc1F)Nc1cc(Cl)c(Oc2ncc(C(F)(F)F)cc2Cl)c(Cl)c1,–,–,–,–,–,-11.7,–
O=C(NN=Cc1ccc([N+](=O)[O-])o1)c1ccc(O)cc1,–,298 °C,–,–,–,–,–
CC(CC=O)CC(C)(C)C (stereo not given),173 °C,–,not readily biodegradable,-1.1,–,–,–
c1ccc(-c2ccc(-c3ccc(-c4ccccc4)cc3)cc2)cc1,–,320 °C,–,–,–,–,–
CC(C)c1ncc([N+](=O)[O-])n1C,–,60 °C,–,–,–,–,–
O=c1ccn([C@@H]2O[C@H](CO)[C@@H](O)[C@@H]2O)c(=O)[nH]1,–,165 °C,–,–,–,–,–
O=C(O)C(Cl)(Cl)CCl,–,65.5 °C,–,–,–,–,–
CCCCCCCCCCCCCC1CCCCC1,346 °C,18.5 °C,–,-5.04,–,–,–
CC1CCCCN1CCCOC(=O)c1ccc(Cl)c(Cl)c1 (stereo not given),–,–,–,–,3.7,–,–
CCCCN(CCCC)CCCC,216 °C,-70 °C,not readily biodegradable,-1.03,–,–,–
O=C(c1ccccc1)C1CCCCC1,–,56 °C,–,–,–,–,–
Nc1cc(C(=O)O)ccc1Cl,–,214 °C,–,–,–,–,–
OCCCCCCCCCCF,–,22 °C,–,–,–,–,–
CN(C)c1cccc(N)c1,270 °C,–,–,–,–,–,–
CCCC(C)CC=O (stereo not given),143 °C,–,–,–,–,–,–
CCCCCCCC(=O)OC,193 °C,-40 °C,not readily biodegradable,-0.267,–,-3.11,–
CCC(C)(C)OC(N)=O,–,86 °C,–,–,–,–,–
CCC(C)C(C)C(C)=O (stereo not given),158 °C,–,–,–,–,–,–
CCc1cc(Cc2cc(CC)cc(C(C)(C)C)c2O)c(O)c(C(C)(C)C)c1,–,120 °C,–,–,–,–,–
Cc1cccc(O)c1C(=O)O,–,173 °C,–,–,–,–,–
Clc1cccc(-c2cc(Cl)ccc2Cl)c1,–,–,–,–,–,-3.7,–

SMILES,boiling point,melting point,ready biodegradability,log10 vapour pressure (mmHg),log10 Koc (L/kg),log10 Henry constant (atm·m³/mol),log10 Koa
CC(C(=O)[O-])c1ccccc1 (stereo not given),261 °C,–,–,–,–,–,–
O=S(=O)(Oc1ccc(Cl)cc1Cl)c1ccccc1,–,45.5 °C,–,–,–,–,–
CN1CCN(C(=O)CC(c2ccc(Cl)cc2)(c2ccc(Cl)cc2)c2ccc(Cl)cc2)CC1,–,214 °C,–,–,–,–,–
Cc1cnc2ccccc2c1,260 °C,16.5 °C,–,–,–,–,–
CCCCCCCCCCCC1CCCC1,296 °C,-10 °C,–,–,–,–,–
Cc1ccc(Nc2ccc(Nc3ccc(C)cc3)c3c2C(=O)c2ccccc2C3=O)cc1,–,218 °C,–,–,–,–,–
ON=C(C(=NO)c1ccccc1)c1ccccc1,–,240 °C,–,–,–,–,–
Oc1c(Cl)c(O)c(Cl)c(O)c1Cl,–,136 °C,–,–,–,–,–
c1ccc2sc(SSc3nc4ccccc4s3)nc2c1,–,180 °C,not readily biodegradable,–,–,–,–
CCCC(=O)c1ccccc1,228 °C,12 °C,–,–,–,–,–
O=C(O)c1cccc(Cl)c1,–,158 °C,readily biodegradable,–,–,–,–
CC(C)CC1CCCCC1,171 °C,-95 °C,–,0.684,–,–,–
CC[C@H]1OC(=O)[C@H](C)[C@@H](O[C@H]2C[C@@](C)(OC)[C@@H](O)[C@H](C)O2)[C@H](C)[C@@H](O[C@@H]2O[C@H](C)C[C@H](N(C)C)[C@H]2O)[C@](C)(O)C[C@@H](C)C(=O)[C@H](C)[C@@H](O)[C@]1(C)O,–,191 °C,–,–,–,–,–
CCCc1ccc2c(c1)OCO2,228 °C,–,–,–,–,–,–
O=C(O)Cc1ccc2ccccc2c1,–,142 °C,–,–,–,–,–
O=[N+]([O-])c1ccc2ccc3cccc4ccc1c2c34,–,155 °C,–,–,–,–,–
Nc1c(Cl)cc(Cl)cc1Cl,262 °C,78.5 °C,not readily biodegradable,–,–,–,–
CCOP(=O)(OCC)OP(=O)(OCC)OCC,–,–,–,-3.58,–,–,–
O=[N+]([O-])c1cccs1,224 °C,46.5 °C,–,–,–,–,–
CCCCNC(=O)n1c(NC(=O)OC)nc2ccccc21,–,–,–,-8.43,2.71,-11.3,–
CC1=C(CCO)SC2=Nc3nc(C)ncc3CN21,–,229 °C,–,–,–,–,–

# Same assay, conditions: fish
SMILES,log10 BCF,log10 biotransformation half-life (days)
CC(C)=C1C=C2CCC3C(C)(C(=O)O)CCCC3(C)C2CC1 (stereo not given),2.17,–
OC(C(F)(F)F)C(F)(F)F,0.4,-1.32
Clc1cc(-c2c(Cl)c(Cl)c(Cl)c(Cl)c2Cl)cc(Cl)c1Cl,–,2.65
Brc1ccc(Oc2ccc(Br)c(Br)c2)cc1Br,6.29,–
CCCCN(CCCC)CCCC,1.4,–
c1ccc2sc(SSc3nc4ccccc4s3)nc2c1,1.42,-0.91
CC(C)CC1CCCCC1,–,0.91
Nc1c(Cl)cc(Cl)cc1Cl,2,0.67
